Measured values taken from patent US6482822B1, “N-(iminomethyl)amines derivatives, their preparation, their use as medicines and compositions containing them” (Societe de Conseils de Recherches et d'Applications …, priority 1998, dated 2002).
Structures can show the parent of a compound that is named as a salt.

## NC(=Nc1ccc(CCCC(=O)Nc2ccc3[nH]c4ccccc4c3c2)cc1)c1cccs1 (as salt: hydrochloride) [Example 18, 4-(4-{[Amino(2-thienyl)methylidene]amino}phenyl)-N-(9H-carbazol-3-yl)butanamide Hydrochloride]
  melting point: > 250 °C
